The values that follow come from publication PMC11879040, “Advancing systemic toxicity risk assessment: Evaluation of a NAM-based toolbox approach” (Toxicological Sciences, 2024).

In general, NOAEL refers to the highest dose or exposure tested at which no adverse effect was seen.

Like-named read-outs stand apart in the source and are kept apart here.

For data set [1], the system named is MCF7 cells. As to the kind of experiment: High-throughput transcriptomics (HTTr, TempO-Seq), MCF7, 24 h. The format is cell-based, human. Particulars: MCF-7; for pod_httr_bifrost PoD: HTTr BIFROST PoD; for podl_path_minbmd PoD: HTTr minimum pathway BMD(L). On the procedure:
(§1) HepG2, HepaRG, and MCF7 cells were treated with each compound for 24 h across a dose range of 7 concentrations and lysed using TempO-Seq lysis buffer (BioSpyder Technologies, proprietary kit, see [Middleton et al. 2022] for method details). Sequencing was performed using TempO-Seq (BioClavis) version 2 of the human whole transcriptome panel and analyzed as described previously in Middleton et al.

Data set [2] addresses T1, Estrogen receptor, ER1 (h) (Homo sapiens, UniProt P03372).
T1 construct: purchased Eurofins Cerep (SafetyScreen44-based IPP panel)
T1 sequence (P03372 1-595): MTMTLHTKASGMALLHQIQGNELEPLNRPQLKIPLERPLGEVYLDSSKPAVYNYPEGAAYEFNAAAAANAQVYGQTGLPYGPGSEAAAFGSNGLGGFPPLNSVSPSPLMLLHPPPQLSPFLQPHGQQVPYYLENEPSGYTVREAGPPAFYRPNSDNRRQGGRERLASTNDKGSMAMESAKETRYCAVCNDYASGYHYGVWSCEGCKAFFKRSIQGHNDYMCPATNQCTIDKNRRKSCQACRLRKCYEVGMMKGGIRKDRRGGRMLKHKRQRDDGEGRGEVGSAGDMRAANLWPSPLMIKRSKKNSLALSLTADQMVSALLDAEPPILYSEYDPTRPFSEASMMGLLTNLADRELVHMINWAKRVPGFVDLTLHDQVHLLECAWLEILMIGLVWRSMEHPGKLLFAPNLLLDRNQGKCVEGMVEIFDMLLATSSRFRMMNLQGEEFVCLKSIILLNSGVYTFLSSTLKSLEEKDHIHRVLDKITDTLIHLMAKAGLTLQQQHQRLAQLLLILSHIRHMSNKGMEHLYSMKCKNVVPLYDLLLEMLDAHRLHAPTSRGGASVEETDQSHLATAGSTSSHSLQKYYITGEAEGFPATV
The experiment in a line: IPP ER1 coactivator recruitment (agonist). In kind it is biochemical. The conditions noted are these: 100 uM, estriol, * denotes assay interference (2-Amino-6-chloro-4-nitrophenol, HC Red 3).

Data set [3] has as its system Potassium Voltage-Gated Channel Kv non-selective, KCNQ1 (r). The experiment in a line: IPP KCNQ1 binding (antagonist radioligand). Details: species or system rat. The conditions noted are these: IPP screening at 100 uM; control α-dendrotoxin.
The test system of data set [4] is HepaRG cells. As to the kind of experiment: High-throughput transcriptomics (HTTr, TempO-Seq), HepaRG, 24 h. The format is cell-based, human. The conditions noted are these: HepaRG; for pod_httr_bifrost PoD: HTTr BIFROST PoD; for podl_path_minbmd PoD: HTTr minimum pathway BMD(L). On the procedure:
as §1

Data set [5] deals with T1, Estrogen receptor, ER1 (h). The experiment in a line: IPP ER1 coactivator recruitment (antagonist). The conditions noted are these: 100 uM, estriol, * denotes assay interference (2-Amino-6-chloro-4-nitrophenol, HC Red 3). The format is biochemical.
The test system of data set [6] is Thyroid hormone receptor alpha, THRA (h). As to the kind of experiment: IPP THRA coactivator recruitment (agonist). The format is biochemical, human. Particulars: 100 uM; agonist; T3; * denotes assay interference (2-Amino-6-chloro-4-nitrophenol, HC Red 3).
For data set [7] the following is noted: human.
Data set [8] concerns HepG2 cells. The experiment in a line: High-throughput transcriptomics (HTTr, TempO-Seq), HepG2, 24 h. The format is cell-based, human. The conditions noted are these: HepG2; for pod_httr_bifrost PoD: HTTr BIFROST PoD; for podl_path_minbmd PoD: HTTr minimum pathway BMD(L). As to the method:
as §1

In data set [9] the test system is 63 targets with known safety liabilities. The experiment in a line: In vitro pharmacological profiling (IPP) panel, screening at 10 or 100 µM and dose response, minimum IC50/AC50. Particulars: lowest AC50 across IPP panel (systemic targets); cell_type -; read-out: ipp_lowest_ac50_systemic PoD. The format is biochemical.
Data set [10] deals with Sodium channel protein type 5 subunit alpha (site 2), SCN5A (r). The format is binding, rat.
Data set [11] has as its target Potassium voltage-gated channel subfamily H member 2 hERG, KCNH2 (h) (Homo sapiens, UniProt Q12809). The conditions noted are these: human, 100 µM.
Data set [12] relates to rat. Particulars: cited from earlier work; for PoD (NOAEL): rat.
Data set [13] deals with T2, Adenosine receptor A2a, ADORA2A (h) (Homo sapiens, UniProt P29274).
T2 construct: purchased Eurofins Cerep (SafetyScreen44-based IPP panel)
As to the kind of experiment: IPP ADORA2A binding (agonist radioligand). The conditions noted are these: IPP screening at 100 uM; control NECA.

Data set [14] relates to Glutamate receptor ionotropic NMDA 1 non-selective, GRIN1 (r). The conditions noted are these: IPP screening at 100 uM; control CGS 19755.
The test system of data set [15] is Gamma-aminobutyric acid receptor subunit alpha-1 BZD site, GABRA1A (r). In kind it is binding, rat. Particulars: IPP screening at 100 uM; control diazepam.
Data set [16] deals with Tubulin (r). As to the kind of experiment: IPP Tubulin binding. More on the design: species or system rat. The conditions noted are these: 100 uM; ligand/control Colchicine.
Data set [17] concerns HepG2 cells. The experiment in a line: Cell stress panel (CSP), 24 h, 8 concentrations, BIFROST global PoD. In kind it is cell-based. The conditions noted are these: HepG2; cell stress panel PoD. On the procedure:
Compounds were tested using the previously developed cell stress panel ([Hatherell et al. 2020]) and the expanded biomarker panel outlined in Middleton et al. HepG2 cells were treated with all compounds for 24 h across 8 concentrations prior to biomarker analysis. The same plate layout and number of replicates (3 biological and 2 technical) were used as previously for each assay within the panel.

The conditions of data set [18]: single value or median, ref [2],[4],[6],[7],[8],[10],[11],[15],[18],[27],[34], cited from earlier work.
The conditions of data set [19]: cited from earlier work.
Data set [20] addresses Voltage-dependent L-type Ca2+ channel (dihydropyridine site), CACNA1C (r) (Rattus norvegicus, UniProt P22002). In kind it is binding.
The nature of data set [21]: hepatic intrinsic clearance (Clint). The conditions noted are these: PBK level L3; optimised against clinical data; per chemical [8],[9],[14],[16],[22],[24],[25],[29],[30],[32].
The conditions of data set [22]: PBK level L2; taken or scaled from references (median where several); ref [6],[7],[10],[19]; cited from earlier work.
Data set [23] is described as follows: Assignment of risk classifications to benchmark chemical-exposure scenarios. Particulars: for risk: Oral, Therapeutic, Tablet, from table S1.
Data set [24] in a line: skin penetration (PBK input). Particulars: PBK level L2, [28] (ibuprofen).
The mark [25] stands for this setting: IPP screening at 100 uM, control veratridine.
Setting [26] is: 90 day oral rat study, ref ToxRefDB/Paul-Friedman et al. (2020)/regulatory opinions.
[27] abbreviates: IV bolus 4 mg, patients hospitalized with community-acquired pneumonia, calibration, ref Spoorenberg et al. 2014.
The mark [28] stands for this setting: Oral tablet 6 mg, fasted, 6 female healthy Asian, validation, ref Jobe et al. 2020.
Setting [29] is: Oral tablet 6 mg, fasted, patients hospitalized with community-acquired pneumonia, validation, ref Spoorenberg et al. 2014.
Setting [30] is: neurological effects, ref SCCS/1582/16.
Where [31] appears, read: optimised based on [21] (glutaraldehyde), [23] (HCRed3).

T2 sequence (P29274 whole entry): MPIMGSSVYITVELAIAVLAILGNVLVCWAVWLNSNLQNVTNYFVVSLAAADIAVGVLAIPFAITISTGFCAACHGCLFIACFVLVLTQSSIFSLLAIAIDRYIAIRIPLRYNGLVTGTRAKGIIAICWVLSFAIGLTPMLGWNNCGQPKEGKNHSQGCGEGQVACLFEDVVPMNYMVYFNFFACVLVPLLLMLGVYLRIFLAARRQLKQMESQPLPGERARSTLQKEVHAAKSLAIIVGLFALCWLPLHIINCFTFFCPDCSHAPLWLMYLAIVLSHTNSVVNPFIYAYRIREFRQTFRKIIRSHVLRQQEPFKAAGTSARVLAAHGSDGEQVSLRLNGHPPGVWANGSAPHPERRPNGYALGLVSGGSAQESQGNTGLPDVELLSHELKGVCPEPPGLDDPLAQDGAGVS
Potassium voltage-gated channel subfamily H member 2 hERG, KCNH2 (h), sequence (Q12809 whole entry): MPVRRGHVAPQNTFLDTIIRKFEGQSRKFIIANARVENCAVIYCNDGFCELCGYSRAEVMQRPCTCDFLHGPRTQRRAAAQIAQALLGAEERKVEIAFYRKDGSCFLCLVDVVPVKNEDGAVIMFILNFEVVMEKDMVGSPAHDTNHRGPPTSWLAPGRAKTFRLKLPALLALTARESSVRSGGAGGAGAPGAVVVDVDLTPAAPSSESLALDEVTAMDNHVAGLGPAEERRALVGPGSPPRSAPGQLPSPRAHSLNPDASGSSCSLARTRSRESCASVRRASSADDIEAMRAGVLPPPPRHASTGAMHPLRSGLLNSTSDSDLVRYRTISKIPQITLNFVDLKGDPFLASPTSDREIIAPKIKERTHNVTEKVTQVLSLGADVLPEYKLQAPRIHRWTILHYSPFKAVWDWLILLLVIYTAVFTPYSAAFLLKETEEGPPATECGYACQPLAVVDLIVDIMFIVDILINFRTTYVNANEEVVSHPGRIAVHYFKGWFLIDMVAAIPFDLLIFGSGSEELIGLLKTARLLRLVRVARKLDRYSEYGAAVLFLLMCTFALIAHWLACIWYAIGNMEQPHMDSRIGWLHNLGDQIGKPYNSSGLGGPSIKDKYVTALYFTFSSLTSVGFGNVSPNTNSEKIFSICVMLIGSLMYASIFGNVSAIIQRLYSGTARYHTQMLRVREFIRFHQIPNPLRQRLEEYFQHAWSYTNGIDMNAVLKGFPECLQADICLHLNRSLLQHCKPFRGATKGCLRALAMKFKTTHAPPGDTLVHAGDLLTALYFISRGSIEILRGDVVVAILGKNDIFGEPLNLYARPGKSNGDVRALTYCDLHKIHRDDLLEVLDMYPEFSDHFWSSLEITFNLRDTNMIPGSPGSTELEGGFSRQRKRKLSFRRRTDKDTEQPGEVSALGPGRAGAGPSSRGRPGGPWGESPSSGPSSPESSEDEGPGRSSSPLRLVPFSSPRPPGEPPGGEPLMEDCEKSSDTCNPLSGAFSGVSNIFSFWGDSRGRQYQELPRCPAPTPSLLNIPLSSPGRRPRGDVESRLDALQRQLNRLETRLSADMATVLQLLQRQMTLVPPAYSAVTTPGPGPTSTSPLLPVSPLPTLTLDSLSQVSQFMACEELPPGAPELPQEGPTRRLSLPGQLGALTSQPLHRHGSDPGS
Voltage-dependent L-type Ca2+ channel (dihydropyridine site), CACNA1C (r), sequence (P22002 whole entry): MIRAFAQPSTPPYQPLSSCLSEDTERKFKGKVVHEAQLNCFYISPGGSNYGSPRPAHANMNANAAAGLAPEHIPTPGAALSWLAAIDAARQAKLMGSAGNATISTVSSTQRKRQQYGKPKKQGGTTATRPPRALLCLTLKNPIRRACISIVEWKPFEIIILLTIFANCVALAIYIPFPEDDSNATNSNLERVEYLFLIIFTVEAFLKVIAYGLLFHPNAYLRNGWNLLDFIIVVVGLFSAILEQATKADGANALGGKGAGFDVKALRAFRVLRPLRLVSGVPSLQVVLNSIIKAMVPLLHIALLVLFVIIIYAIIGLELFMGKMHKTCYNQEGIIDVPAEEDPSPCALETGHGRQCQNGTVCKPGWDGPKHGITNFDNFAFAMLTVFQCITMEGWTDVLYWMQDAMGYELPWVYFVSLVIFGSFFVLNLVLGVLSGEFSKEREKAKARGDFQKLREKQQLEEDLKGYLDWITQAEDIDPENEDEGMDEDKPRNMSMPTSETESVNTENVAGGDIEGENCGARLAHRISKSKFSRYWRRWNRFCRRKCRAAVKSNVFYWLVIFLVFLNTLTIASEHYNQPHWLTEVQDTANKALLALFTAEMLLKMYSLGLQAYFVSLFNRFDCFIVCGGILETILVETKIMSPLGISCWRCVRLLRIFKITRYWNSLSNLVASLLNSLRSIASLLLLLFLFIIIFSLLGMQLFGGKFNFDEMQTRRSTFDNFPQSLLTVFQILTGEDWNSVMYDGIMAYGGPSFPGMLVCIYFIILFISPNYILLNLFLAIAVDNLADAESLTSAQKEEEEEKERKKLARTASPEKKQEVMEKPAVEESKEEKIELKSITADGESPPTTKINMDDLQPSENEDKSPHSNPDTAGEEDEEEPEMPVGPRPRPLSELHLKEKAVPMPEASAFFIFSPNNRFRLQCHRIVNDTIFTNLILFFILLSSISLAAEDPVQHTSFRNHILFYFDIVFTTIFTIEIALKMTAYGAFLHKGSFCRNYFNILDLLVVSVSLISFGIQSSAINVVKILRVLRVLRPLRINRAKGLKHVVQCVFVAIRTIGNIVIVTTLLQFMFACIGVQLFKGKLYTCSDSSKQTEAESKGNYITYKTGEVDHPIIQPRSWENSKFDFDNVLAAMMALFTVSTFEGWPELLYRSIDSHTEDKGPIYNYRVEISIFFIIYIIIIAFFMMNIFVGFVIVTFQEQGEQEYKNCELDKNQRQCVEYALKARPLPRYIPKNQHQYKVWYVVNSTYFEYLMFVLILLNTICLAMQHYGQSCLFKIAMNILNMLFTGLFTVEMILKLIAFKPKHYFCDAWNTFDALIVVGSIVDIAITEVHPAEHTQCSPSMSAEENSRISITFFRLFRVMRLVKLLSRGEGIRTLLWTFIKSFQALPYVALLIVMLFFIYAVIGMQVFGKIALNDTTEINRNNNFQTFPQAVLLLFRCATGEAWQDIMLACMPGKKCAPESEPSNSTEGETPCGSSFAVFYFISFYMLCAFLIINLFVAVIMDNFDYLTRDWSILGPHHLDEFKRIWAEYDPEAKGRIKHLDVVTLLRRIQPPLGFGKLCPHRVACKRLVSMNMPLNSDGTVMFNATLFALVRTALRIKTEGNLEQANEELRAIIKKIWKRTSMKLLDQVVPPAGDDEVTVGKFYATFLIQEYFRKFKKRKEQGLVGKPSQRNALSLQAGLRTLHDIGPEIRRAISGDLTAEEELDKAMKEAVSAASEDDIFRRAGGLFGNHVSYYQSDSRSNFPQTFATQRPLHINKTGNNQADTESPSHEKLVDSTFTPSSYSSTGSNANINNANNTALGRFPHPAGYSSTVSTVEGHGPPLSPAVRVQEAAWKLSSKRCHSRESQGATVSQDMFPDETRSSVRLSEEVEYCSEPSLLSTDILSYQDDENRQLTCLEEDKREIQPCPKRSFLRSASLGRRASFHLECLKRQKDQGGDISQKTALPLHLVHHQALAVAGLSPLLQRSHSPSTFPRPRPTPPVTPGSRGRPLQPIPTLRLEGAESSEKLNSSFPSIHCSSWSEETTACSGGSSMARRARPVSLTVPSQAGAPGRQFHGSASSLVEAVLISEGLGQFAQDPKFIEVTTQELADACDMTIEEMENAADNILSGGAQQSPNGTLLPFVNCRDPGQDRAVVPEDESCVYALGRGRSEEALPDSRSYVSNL

On to `Cc1c(O)cccc1O` [2-methyl-1,3-benzenediol, 2-Methylbenzene-1,3-diol], for which the results for the “pod_httr_bifrost PoD” value in data set [1], in [4] and in data set [8] were 1.165 µM, 22.9719 µM and 0.2182 µM, respectively. In addition, the “podl_path_minbmd PoD” value in data set [1] was 52.4925 µM; in data set [4], 117.879 µM; in [8], 169.35 µM. Further, the “IPP screening %, Coactivator recruitment” value in [2] was 13.0%; in data set [5], -6.0%; in [6] it was 2.0%. Further, the Specific binding in data set [3] is on record as 27.5%; in [10] (setting [25]), 41.6%; in data set [13], 8.4%; in data set [14], 1.8%; in data set [15] it was 6.5%. The risk in data set [7] is 0. Also, in [9], the AC50 worked out at 900 nM. The “IPP screening %, Specific binding” value in data set [11] is recorded as 3.3%; in data set [16] it was -14.0%. Further, in [12] (90-day study, body weight changes to rats, ref [3,4]), the NOAEL is listed as 100 mg/kg bw/day. Moreover, the “PoD (NOAEL)” value in [12] (setting [26]) was 100 mg/kg bw/day. Also, the “NOAEL for teratogenicity and maternal toxicity” value in data set [12] (ref [3,4]) is recorded as 400 mg/kg bw/day. Also, the “pod_cell_stress PoD” value in data set [17] came out at 8.64 µM.
On to `C[C@@H]1C[C@H]2[C@@H]3CCC4=CC(=O)C=C[C@]4(C)[C@@]3(F)[C@@H](O)C[C@]2(C)[C@@]1(O)C(=O)CO` [Dexamethasone, 9-Fluoro-11beta,17,21-trihydroxy-16alpha-methylpregna-1,4-diene-3,20-dione], for which the “pod_httr_bifrost PoD” value in [1] is 9.79e-05 µM; in [4], 3.5452 µM; in data set [8] it was 0.0003269 µM. The entries for the “podl_path_minbmd PoD” value in [1], in [4] and in data set [8] were 6.367 µM, 74.2662 µM and 69.6957 µM, respectively. For the same compound, the Fup in data set [18] (PBK level L2) and in data set [18] (PBK level L3) was 26.3% each time. The Specific binding in [3] was -4.1%; in [20], -36.4%; in [10], 11.2%; in data set [13] it was -9.1%; in data set [14], 10.7%; in data set [15] it was 27.9%. The figures for the “Reported AUC0-t” value in data set [19] (setting [27]), in data set [19] (setting [28]) and in data set [19] (setting [29]) were 507.3 ng·h/mL, 689.3 ng·h/mL and 746.6 ng·h/mL, respectively. Further, the Reported cmax in [19] (setting [27]) was 0.0964 µg/mL; in data set [19] (setting [28]), 0.0822 µg/mL; in data set [19] (setting [29]) it was 0.0643 µg/mL. In addition, the Reported tmax in data set [19] (setting [27]) is 0 h; in [19] (setting [28]), 1.53 h; in data set [19] (setting [29]), 1.4 h. In addition, the “Intrinsic Liver Clearance” value in data set [21] is 23.37 L/h; in [22], 107.8 L/h. In addition, the “IPP screening %, Coactivator recruitment” value in data set [6] came out at 3.0%. For the same compound, the AC50 in [9] was found to be 3.15 nM. For the same compound, the “Risk Classification” value in data set [23] (Oral tablet 0.5 mg/day) and in data set [23] (Oral tablet 10 mg/day) was “High risk” each time. Moreover, the risk in [23] (0.5mg/day, Exp3) was 1; in [23] (10mg/day, Exp4) it was 1. Also, in [12] (endocrine toxicity study, ref ECFA ADI), the “PoD (NOAEL)” value is 0.001 mg/kg bw/day. Besides, the “IPP screening %, Specific binding” value in data set [16] is listed as -8.0%. Moreover, the “pod_cell_stress PoD” value in data set [17] amounted to 14.5194 µM.
In the case of `CCOc1cc(CCC(C)=O)ccc1O` [Ethylzingerone, 4-(3-Ethoxy-4-hydroxyphenyl)butan-2-one], the entries for the “pod_httr_bifrost PoD” value in data set [1], in data set [4] and in [8] were 11.821 µM, 29.321 µM and 11.971 µM, respectively. Moreover, the “podl_path_minbmd PoD” value in data set [1] is recorded as 119.724 µM; in data set [4] it was 291.446 µM; in data set [8] it was 445.376 µM. Also, the “IPP screening %, Coactivator recruitment” value is 2.0% in data set [2], -14.0% in [5] and 4.0% in data set [6]. In addition, the Specific binding in data set [3] is on record as 0.7%; in [10] (setting [25]), 8.8%; in data set [13], 4.5%; in data set [14], -16.9%; in data set [15], -2.5%. This compound had a risk in [7] of 0. Besides, the AC50 in [9] came to 1390 nM. Moreover, the “IPP screening %, Specific binding” value in [11] stood at 0.2%; in data set [16], 16.0%. For the same compound, in data set [12] (90 day oral rat study, ref SCCS/1582/16), the “local NOAEL” value is given as 300 mkd. Besides, in data set [12] (setting [30]), the BMD is 220 mkd. Also, the BMDL in [12] (setting [30]) is on record as 110 mkd. Also, in data set [12] (setting [26]), the “PoD (NOAEL)” value was 100 mg/kg bw/day. Also, the “pod_cell_stress PoD” value in [17] stood at 17.0917 µM.
For the compound `Nc1ccc(NCCO)c([N+](=O)[O-])c1` [HCRed3], in data set [18] (PBK level L2), the Fup is reported as 62.28%. For the same compound, the “Intrinsic Liver Clearance” value in [22] is 248.1 L/h. In data set [24] (setting [31]), the “Diffusivity Dermis” value turned out to be 1.00E-08 cm^2/s, the “Diffusivity Stratum Corneum” value came to 1.00E-08 cm^2/s and the “Diffusivity Viable Epidermis” value was 1.00E-10 cm^2/s. The “Partition Coefficient Stratum Corneum/Water” value in [24] (optimised based on [21] (glutaraldehyde), [23] (HCRed3), no reference printed (DEET)) is 1.50. For the same compound, the “Diffusivity Vehicle” value in data set [24] (optimised based on [23] (HCRed3)) is on record as 1.00E-05 cm^2/s.
